2 compounds from patent US20090023645A1, “AIB1, a novel steroid receptor co-activator” (The Government of the United States of America as …, priority 1997, published 2009) can be followed below.

In one test the test system is ER. Kind of test: transient transfection ER reporter (luciferase) transcription assay in COS-1 cells. The format is cell-based. Particulars: 100 nM 4-hydroxytamoxifen in place of 17β-estradiol. The procedure: COS-1 cells were transiently transfected with 250 ng ER expression vector (pHEGO-hyg), 10 ng of luciferase reporter plasmid (pGL3.luc.3ERE or 10 ng pGL3 lacking ERE) and increasing amounts of pcDNA3.1-AIB1 and incubated in the absence (open bars) or presence of 10 nM 17β-stradiol (E2, solid bars) or 100 nM 4-hydroxytamoxifen (hatched bars). Luciferase activity was expressed in relative luminescence units (RLU). The data are the mean of three determinations from one of four replicate experiments. Error bars indicate one standard deviation.
To determine whether expression of AIB1 increases ER ligand-dependent transactivation, transient transfection assays were performed. The effect of increasing levels of AIB1 on transcription of an ER dependent reporter was measured. […] This effect was not observed when the estrogen antagonist, 4-hydroxytamoxifen (4-OHT), was substituted for 17β-estradiol or when the estrogen response element (ERE) was removed from the reporter plasmid (FIG. 3).
To determine the effect of AIB1 on estrogen-dependent transcription, an ER reporter plasmid can be used. […] Reporter activities were determined using the Dual-Luciferase Reporter Assay System (Promega) and the results expressed in relative luminescence units (RLU; luciferase/Renilla luciferase). pRL-CMV and pGL3-promoter were obtained from Promega. pHEGO-hyg was obtained from ATCC. […]

The next test has as its system recurrent breast cancer. Kind of test: response to tamoxifen therapy in patients with recurrent breast cancer and ER-positive primary tumors. The format is in vivo. On the procedure: Loss of estrogen receptor in recurrent breast caner is also associated with poor response to endocrine therapy. […] The frequency of hormone receptor status changes between primary and recurrent tumors and whether such a change might explain unresponsiveness to endocrine therapy was examined. Primary breast cancer samples and matched asynchronous recurrences were studied from 50 patients who had not received any adjuvant therapy. ER and progesterone receptor (PR) status was determined immunohistochemically from histologically representative formalin-fixed paraffin-embedded tumor samples. ER status was ascertained by mRNA in situ hybridization. Thirty-five (70%) of 50 primary tumors were positive for ER and 30 (60%) for PR. Hormone receptor status of the recurrent tumor differed from that of the primary tumor in 18 cases (36%). Discordant cases were due to the loss of ER (n=6), loss of PR (n=6), or loss of both receptors (n=6). Receptor-negative primary tumors were always accompanied by receptor-negative recurrences. Among 27 patients with ER-positive primary tumors, loss of ER was a significant predictor (P=0.0085) of poor response to subsequent endocrine therapy. […] Loss of ER expression in recurrent breast cancer predicts poor response to endocrine therapy in primarily ER-positive patients.

Another test has as its system metastatic tumor. Nature of the test: tamoxifen treatment of a patient whose metastatic breast tumor showed high AIB1 copy number. Type of test: in vivo. The conditions noted are these: one post-menopausal patient, ER/PR positive metastatic tumor with high AIB1 copy number.

Take 4-hydroxytamoxifen: the “AIB1 dose dependent increase in transcription when the ligand is substituted for 17β-estradiol” value with ER is listed as “not observed”.
Take `CC/C(=C(\c1ccccc1)c1ccc(OCCN(C)C)cc1)c1ccccc1` [tamoxifen]: the “response rate to tamoxifen therapy” value was found to be 74% in the test on recurrent breast cancer (patients whose recurrent tumors retained ER expression (14 of 19)) and 12.5% with recurrent breast cancer (patients with lost ER expression in the recurrent tumor (one of eight)). In the test on metastatic tumor, the “patient response to tamoxifen treatment” value is given as “responded favorably”.
